Legend:
Format in all cases: cell-based
INS-1 or MIN6 cells = experiment: Thapsigargin-induced apoptosis, caspase-3 activity assay; settings: SDF-1 10 nM with thapsigargin 1 microM, 16 h
Protocol: FIG. 6. Inhibition of apoptosis by SDF-1 in INS-1 and MIN-6 cells is reversed by knock-down of betacatenin. A. Western blot analysis of extracts from MIN6 cells that were mock treated, thapsigargin-treated (1 μM) and/or siRNA transfected (0.25 mg/ml), by using anti-serum against cleaved caspase-3 (upper panel), anti-serum against cleaved PARP (middle panel) and actin antibody (lower panel) as a loading control. B. Caspase-3 activity (fluorescence/mg proteinx105) of INS-1 or MIN6 cells mock treated, thapsigargin-treated (1 μM) and/or siRNA transfected (0.25 mg/ml). Results are presented as mean±SD for n=3 independent experiments, All values are relative to the first (leftmost) bar. […] Quantification of apoptotic cells is expressed as percent apoptotic cells relative to the total cells counted (lower left panel). […]
Thapsigargin-induced apoptosis in INS-1 or MIN6 cells For western immuoblot assay (Cell Signaling), MIN6 cells were seeded into 6 well plates then treated with 1 microM thapsigargin or DMSO control for 16 h and apoptotic activity was measured by Western immunoblotting using antisera specific for cleaved (active) caspase-3 (Cell signaling #9661) and cleaved (active) PARP (Cell signaling #9548). For caspase-3 assay, INS-1 cells or MIN-6 cells in 24-well plates were treated with 1 microM thapsigargin or DMSO for 16 hand caspase-3 activity was determined (Molecular Probes). […]

INS-1 cells [1] = experiment: Cell proliferation assay, BrdU incorporation; settings: SDF-1 10 nM overnight
Protocol: (§1) FIG. 6. Inhibition of apoptosis by SDF-1 in INS-1 and MIN-6 cells is reversed by knock-down of betacatenin. A. Western blot analysis of extracts from MIN6 cells that were mock treated, thapsigargin-treated (1 μM) and/or siRNA transfected (0.25 mg/ml), by using anti-serum against cleaved caspase-3 (upper panel), anti-serum against cleaved PARP (middle panel) and actin antibody (lower panel) as a loading control. B. Caspase-3 activity (fluorescence/mg proteinx105) of INS-1 or MIN6 cells mock treated, thapsigargin-treated (1 μM) and/or siRNA transfected (0.25 mg/ml). Results are presented as mean±SD for n=3 independent experiments, All values are relative to the first (leftmost) bar. Statistical significance is depicted as * (p<0.05) when compared with control values (leftmost bar) and # (<0.05) when compared with […] thapsigargin treatment. C. Representative images are shown for TUNEL staining of INS-1 cells of n=3 independent experiments. Quantification of apoptotic cells is expressed as percent apoptotic cells relative to the total cells counted (lower left panel). […]
Cell Proliferation Assay Proliferation of INS-1 cells was determined by incorporation of BrdU into newly synthesized DNA of proliferating cells. […] BrdU staining was measured by the DELFIA cell proliferation kit (Perkin Elmer).

INS-1 cells [2] = experiment: MTT assay of cell growth; settings: serum starved, SDF-1 10 nM, 48 hr
Protocol: as §1, with “panel). D. The proliferation rates of INS-1 cells after SDF-1 or Exd4 treatment are presented as relative BrdU and MTT incorporation values compared to that of control treated cells.” for “panel).”
MTT Assay Growth of INS-1 cells was determined by the MTT system. […]

Akt = experiment: Phospho-Akt to Akt ratio by Western immunoblot in alphaTC-1 cells
Text: FIG. 18. Activation of CXCR4 by SDF-1 in alphaTC-1 cells induces phosphorylation of Akt. Shown is a semi-quantitative measurement of the ratio of phospho-Akt to Akt (lower) determined by Western immunoblots (upper).

[3] = system: GLP-1 receptor (GLP-1R) mRNA; experiment: GLP-1R mRNA by RT-PCR in alphaTC-1 cells; settings: SDF-1 10 nM, by 4 hrs
Protocol: FIG. 21. SDF-1 induces the expression of the GLP-1 receptor (GLP-1R) mRNA in alphaTC-1 cells. […] RNA levels were determined by RT-PCR.

PDX-1 = PDX-1 mRNA by RT-PCR in alphaTC-1 cells; settings: SDF-1 10 nM, by 12 hours
Protocol: FIG. 22. SDF-1 induces the expression of PDX-1 in alphaTC-1 cells. PDX-1 mRNA is induced by 12 hours after the addition of SDF-1 (10 nM), determined by RT-PCR. M=marker lane.

mouse islets = experiment: GLP-1 production in mouse islets ex vivo, radioimmunoassay; settings: batches of 50 islets, medium 1 and 4 hours, lysate 4 hr; SDF-1 10 nM
Protocol: FIG. 37. Cytokines and SDF-1 stimulate GLP-1 production in mouse islets ex vivo. Batches of 50 islets were treated with control, cytokine mixture, or 10 nM SDF-1. Medium was collected in 1 hr and 4 hr. Islet lysate was collected in 4 hr. GLP-1. Immunoreactive protein was measured by radioimmunoassay.
Batches of 50 islets were treated with a control vehicle, a cytokine mixture, or 10 nM SDF-1. Medium was collected from each batch at 1 hour and 4 hours, and islet lysate was collected in 4 hr. the concentration of GLP-1 contained in each sample collected was measured by radioimmunoassay of the immunoreactive protein.

## SDF-1: small, secreted 70 amino acid peptide chemokine, SEQ ID NO: 1, ligand of CXCR4
INS-1 or MIN6 cells
  effect on thapsigargin-induced caspase-3 activity (proapoptotic effect): attenuated
INS-1 cells [1]
  effect on proliferation of INS-1 cells, BrdU incorporation: no detectable effects
INS-1 cells [2]
  effect on proliferation of INS-1 cells, MTT assay: no detectable effects
Akt
  Akt activation (phosphorylation) in alpha cells: activates Akt
[3]
  GLP-1R mRNA expression: induces the expression of GLP-1R
PDX-1
  PDX-1 mRNA expression: induced
Mouse islets
  production of GLP-1 by mouse islets: induces the production of GLP-1

Reference: patent US20120053119A1, “THERAPEUTIC METHOD FOR INCREASING PANCREATIC BETA CELL MASS” (priority 2009, published 2012)
